Experimental data from ChEMBL document CHEMBL4346715, “Antibacterial activity study of 1,2,4-triazole derivatives” (Eur J Med Chem, 2019).
Values after ≈ are worked out from the molar mass of the structure shown.

Columns and labels:
[1] = system: Staphylococcus aureus; experiment: Antibacterial activity against Staphylococcus aureus incubated for 18 hrs post 30 mins pre-diffusion by disk diffusion method; type: functional
[2] = system: Escherichia coli; experiment: Antibacterial activity against Escherichia coli incubated for 18 hrs post 30 mins pre-diffusion by disk diffusion method; type: functional
[3] = system: Bacillus subtilis; experiment: Antibacterial activity against Bacillus subtilis; type: functional
[4] = system: Streptococcus pneumoniae; experiment: Antibacterial activity against Streptococcus pneumoniae; type: functional
[5] = system: Staphylococcus aureus; experiment: Antibacterial activity against Staphylococcus aureus; type: functional
[6] = system: Clostridium tetani; experiment: Antibacterial activity against Clostridium tetani; type: functional
[7] = system: Escherichia coli; experiment: Antibacterial activity against Escherichia coli; type: functional
[8] = system: Pseudomonas aeruginosa; experiment: Antibacterial activity against Pseudomonas aeruginosa ATCC 27853 after 24 hrs by broth microdilution method; type: functional; conditions: ATCC 27853, 24 h
[9] = system: Salmonella typhimurium; experiment: Antibacterial activity against Salmonella typhimurium ATCC 14028 after 24 hrs by broth microdilution method; type: functional, Salmonella enterica subsp. enterica serovar Typhimurium; conditions: Salmonella enterica, ATCC 14028, 24 h
[10] = system: Staphylococcus aureus; experiment: Antibacterial activity against Staphylococcus aureus ATCC 49444 after 24 hrs by broth microdilution method; type: functional; conditions: ATCC 49444, 24 h
[11] = system: Listeria monocytogenes; experiment: Antibacterial activity against Listeria monocytogenes ATCC 35152 after 24 hrs by broth microdilution method; type: functional; conditions: ATCC 35152, 24 h
[12] = system: Escherichia coli; experiment: Antibacterial activity against Escherichia coli after 24 hrs by broth microdilution method; type: functional
[13] = system: Candida albicans; experiment: Antifungal activity against Candida albicans; type: functional
[14] = system: Aspergillus niger; experiment: Antifungal activity against Aspergillus niger; type: functional
[15] = system: Pseudomonas aeruginosa; experiment: Antibacterial activity against Pseudomonas aeruginosa; type: functional

**Q.** How did the MIC [1] turn out when FC(F)(F)c1cc(-c2nnc(Sc3cc(Cl)nc(Oc4ccccc4)n3)[nH]2)cc(C(F)(F)F)c1 was run?
**A.** The MIC was 1.6 to 250 µg/mL (≈ 3.09 to 483 µM).

**Q.** And the MIC [2]?
**A.** Its MIC is 1.6 to 250 µg/mL (≈ 3.09 to 483 µM).

**Q.** What does the source list for NYSTATIN?
**A.** MIC [3]: 100 to 500 µg/mL; MIC [4]: 100 to 500 µg/mL; MIC [5]: 100 to 500 µg/mL; MIC [6]: 100 to 500 µg/mL; MIC [7]: 100 to 500 µg/mL

**Q.** With Cc1nc(-c2ccccc2)sc1-c1nnc(S)n1/N=C/c1ccc(Br)cc1 as the compound, how does the MIC [8] read?
**A.** The MIC was 1.95 to 62.5 µg/mL (≈ 4.27 to 137 µM).

**Q.** What about the MIC [9] of the same compound?
**A.** The MIC was 1.95 to 62.5 µg/mL (≈ 4.27 to 137 µM).

**Q.** And the MIC [10]?
**A.** Its MIC is 1.95 to 62.5 µg/mL (≈ 4.27 to 137 µM).

**Q.** What about the MIC [11] of the same compound?
**A.** Its MIC is 1.95 to 62.5 µg/mL (≈ 4.27 to 137 µM).

**Q.** What about the MIC [12] of the same compound?
**A.** Its MIC is 1.95 to 62.5 µg/mL (≈ 4.27 to 137 µM).

**Q.** For Sc1nnc(-c2ccncc2)n1/N=C/c1ccc(Cl)cc1, which MIC [3] is on record?
**A.** The MIC was 10.2 to 162 µg/mL (≈ 32.3 to 515 µM).

**Q.** And the MIC [13]?
**A.** Its MIC is 10.2 to 162 µg/mL (≈ 32.3 to 515 µM).

**Q.** And the MIC [5]?
**A.** Its MIC is 10.2 to 162 µg/mL (≈ 32.3 to 515 µM).

**Q.** What about the MIC [14] of the same compound?
**A.** Its MIC is 10.2 to 162 µg/mL (≈ 32.3 to 515 µM).

**Q.** What about the MIC [7] of the same compound?
**A.** Its MIC is 10.2 to 162 µg/mL (≈ 32.3 to 515 µM).

**Q.** And the MIC [15]?
**A.** Its MIC is 10.2 to 162 µg/mL (≈ 32.3 to 515 µM).

**Q.** What does the source list for Fc1cc(F)cc(-c2nnc(Sc3cc(Cl)nc(Sc4ccccc4)n3)[nH]2)c1?
**A.** MIC [1]: 1.6 to 250 µg/mL (≈ 3.69 to 576 µM); MIC [2]: 1.6 to 250 µg/mL (≈ 3.69 to 576 µM)

**Q.** How did the MIC [8] turn out when Cc1nc(-c2ccccc2)sc1-c1nnc(S)n1/N=C/c1ccc(Cl)cc1Cl was run?
**A.** Its MIC is 1.95 to 62.5 µg/mL (≈ 4.37 to 140 µM).

**Q.** And the MIC [9]?
**A.** The MIC was 1.95 to 62.5 µg/mL (≈ 4.37 to 140 µM).

**Q.** And the MIC [10]?
**A.** Its MIC is 1.95 to 62.5 µg/mL (≈ 4.37 to 140 µM).

**Q.** And the MIC [11]?
**A.** Its MIC is 1.95 to 62.5 µg/mL (≈ 4.37 to 140 µM).

**Q.** What about the MIC [12] of the same compound?
**A.** The MIC was 1.95 to 62.5 µg/mL (≈ 4.37 to 140 µM).

**Q.** How did the MIC [3] turn out when Cc1ccc(/C=N/n2c(S)nnc2-c2ccncc2)cc1 was run?
**A.** The MIC was 10.2 to 162 µg/mL (≈ 34.5 to 550 µM).

**Q.** What about the MIC [13] of the same compound?
**A.** The MIC was 10.2 to 162 µg/mL (≈ 34.5 to 550 µM).

**Q.** What about the MIC [5] of the same compound?
**A.** The MIC was 10.2 to 162 µg/mL (≈ 34.5 to 550 µM).

**Q.** And the MIC [14]?
**A.** Its MIC is 10.2 to 162 µg/mL (≈ 34.5 to 550 µM).

**Q.** And the MIC [7]?
**A.** The MIC was 10.2 to 162 µg/mL (≈ 34.5 to 550 µM).

**Q.** And the MIC [15]?
**A.** Its MIC is 10.2 to 162 µg/mL (≈ 34.5 to 550 µM).

**Q.** For Cc1nn(-c2ccccc2)c(-n2cncn2)c1-c1cc(-c2ccccc2)nc2nc3ccccc3n12, which MIC [3] is on record?
**A.** The MIC was 62.5 to 250 µg/mL (≈ 133 to 534 µM).

**Q.** What about the MIC [4] of the same compound?
**A.** Its MIC is 62.5 to 250 µg/mL (≈ 133 to 534 µM).

**Q.** And the MIC [5]?
**A.** Its MIC is 62.5 to 250 µg/mL (≈ 133 to 534 µM).

**Q.** What about the MIC [6] of the same compound?
**A.** Its MIC is 62.5 to 250 µg/mL (≈ 133 to 534 µM).

**Q.** And the MIC [7]?
**A.** Its MIC is 62.5 to 250 µg/mL (≈ 133 to 534 µM).

**Q.** Which MIC [8] does the source give for Cc1nc(-c2ccccc2)sc1-c1nnc(S)n1/N=C/c1ccc(O)cc1 here?
**A.** The MIC was 1.95 to 62.5 µg/mL (≈ 4.96 to 159 µM).

**Q.** And the MIC [9]?
**A.** Its MIC is 1.95 to 62.5 µg/mL (≈ 4.96 to 159 µM).

**Q.** And the MIC [10]?
**A.** The MIC was 1.95 to 62.5 µg/mL (≈ 4.96 to 159 µM).

**Q.** What about the MIC [11] of the same compound?
**A.** Its MIC is 1.95 to 62.5 µg/mL (≈ 4.96 to 159 µM).

**Q.** And the MIC [12]?
**A.** The MIC was 1.95 to 62.5 µg/mL (≈ 4.96 to 159 µM).

**Q.** With CCCCCSc1nc(Cl)cc(Sc2nnc(-c3cc(C(F)(F)F)cc(C(F)(F)F)c3)[nH]2)n1 as the compound, how does the MIC [1] read?
**A.** The MIC was 1.6 to 250 µg/mL (≈ 3.03 to 474 µM).

**Q.** What about the MIC [2] of the same compound?
**A.** The MIC was 1.6 to 250 µg/mL (≈ 3.03 to 474 µM).

**Q.** How did the MIC [1] turn out when CSc1nc(Cl)cc(Sc2nnc(-c3cc(F)cc(F)c3)[nH]2)n1 was run?
**A.** The MIC was 1.6 to 250 µg/mL (≈ 4.3 to 672 µM).

**Q.** And the MIC [2]?
**A.** The MIC was 1.6 to 250 µg/mL (≈ 4.3 to 672 µM).

**Q.** For FC(F)(F)c1cccc(-c2nnc(Sc3cc(Cl)nc(Sc4ccccc4)n3)[nH]2)c1, which MIC [1] is on record?
**A.** Its MIC is 1.6 to 250 µg/mL (≈ 3.43 to 537 µM).

**Q.** What about the MIC [2] of the same compound?
**A.** Its MIC is 1.6 to 250 µg/mL (≈ 3.43 to 537 µM).

**Q.** Which results are given for Cc1nc(-c2ccccc2)sc1-c1nnc(S)n1/N=C/c1cccc(Cl)c1?
**A.** MIC [8]: 1.95 to 62.5 µg/mL (≈ 4.73 to 152 µM); MIC [9]: 1.95 to 62.5 µg/mL (≈ 4.73 to 152 µM); MIC [10]: 1.95 to 62.5 µg/mL (≈ 4.73 to 152 µM); MIC [11]: 1.95 to 62.5 µg/mL (≈ 4.73 to 152 µM); MIC [12]: 1.95 to 62.5 µg/mL (≈ 4.73 to 152 µM)
